Measurements from patent US20250332181A1, “ANTIBIOTIC METHODS AND COMPOSITIONS” (AI BIO DISCOVERY LLC, priority 2024, published 2025).
“Also recorded” adds a separate entry of the source.

Key:
Assay type in all cases: cell-based
Klebsiella pneumoniae = test: Disk diffusion test on Klebsiella pneumoniae; settings: for antibacterial activity of the agent by itself: single agent disk, ceftazidime 30 μg, meropenem 10 μg, Compound C 15 μg
Excerpt: (§1) Applicants undertook two rounds of studies. The results of the first round are illustrated in FIGS. 1A-9B and discussed in the related text. The results of the second round of studies are illustrated in FIGS. 10-23 and discussed in the related text. When agar plating was required, both rounds of Applicants' studies were undertaken using similar disk diffusion methods on bacteria grown on agar substrates in Petri dishes. These methods conform to those prescribed by the Clinical & Laboratory Standards Institute (https://clsi.org).
(§2) Disk Diffusion tests with beta-lactam antibiotics with and without the beta-lactamase inhibitor of FIG. 1A. Closely spaced disks disclose possible synergistic or inhibitory effects between the antibiotics and the compound of FIG. 1A (labeled in FIGS. 4A-9B as Compound C). The distances between disks show the effectiveness of the possible synergy. […] Each disk contains either the compound of FIG. 1A or an antibiotic (one of FIGS. 3A-3D), or the compound of […] and an antibiotic (one of FIGS. 3A-3D). When a disk with the compound of FIG. 1A is in proximity to a disk with an antibiotic both agents diffuse into the bacterial growth medium, allowing us to observe the area where both agents are present at the same time. These disk diffusion tests were evaluated with the following:
(§3) As noted above, Applicants' studies were undertaken using similar disk diffusion methods on bacteria grown on agar substrates in Petri dishes. These methods conform to those prescribed by the Clinical & Laboratory Standards Institute (https://clsi.org).

Acinetobacter baumannii = test: Disk diffusion test on Acinetobacter baumannii
Excerpt: (§4) Applicants undertook two rounds of studies. […] When agar plating was required, both rounds of Applicants' studies were undertaken using similar disk diffusion methods on bacteria grown on agar substrates in Petri dishes. These methods conform to those prescribed by the Clinical & Laboratory Standards Institute (https://clsi.org). […]

[1] = system: MSSA (methicillin-sensitive Staphylococcus aureus); test: Disk diffusion test on Staphylococcus aureus (MSSA); settings: for action of the antibiotic by itself on the Staphylococcus aureus strain: used either separately or in combination
Excerpt: as §4

[2] = system: methicillin-resistant coagulase-negative Staphylococcus sps. (MRCoNS); test: Disk diffusion test on MRCoNS; settings: for antibacterial activity of the agent by itself: single agent disk, penicillin G 10 μg, cefoxitin 30 μg, Compound C 15 μg
Excerpt: as §1, §2, §3

Pseudomonas aeruginosa = test: Disk diffusion test on Pseudomonas aeruginosa
Excerpt: as §4

Citrobacter freundii = test: Disk diffusion test on Citrobacter freundii
Excerpt: as §4

Escherichia coli = test: Disk diffusion test on Escherichia coli
Excerpt: as §4

[3] = in combination with piperacillin
[4] = in combination with ceftazidime
[5] = in combination with ceftazidime (second round)
[6] = in combination with meropenem (second round)
[7] = in combination with ceftriaxone

SMILES	effectiveness of the combination with antibiotic (Acinetobacter baumannii; in combination with cefepime)	effectiveness of the combination with antibiotic (Pseudomonas aeruginosa; in combination with aztreonam)	effectiveness of the combination with antibiotic (Pseudomonas aeruginosa; in combination with cefepime)	effectiveness of the combination with antibiotic (Pseudomonas aeruginosa; in combination with meropenem)	effectiveness of the combination with antibiotic (Pseudomonas aeruginosa; [3])	effectiveness of the combination with antibiotic (Acinetobacter baumannii; [4])	effectiveness of the combination with antibiotic (Acinetobacter baumannii; in combination with meropenem)	effectiveness of the combination with antibiotic (Klebsiella pneumoniae; [5])	other results
C[C@@H](O)[C@H]1C(=O)N2C(C(=O)O)=C(S[C@@H]3CN[C@H](C(=O)N(C)C)C3)[C@H](C)[C@H]12 [Meropenem, meropenem, reference compound]	–	–	–	–	–	–	–	–	antibacterial activity of the agent by itself (Klebsiella pneumoniae): by itself IS active
Nc1cc(B(O)O)cc(C(=O)O)c1 [3-Amino-5-carboxylphenylboronic acid]	enhanced effectiveness	–	–	–	–	–	–	–	–
CC1(C)S[C@@H]2[C@H](NC(=O)Cc3ccccc3)C(=O)N2[C@H]1C(=O)O [Penicillin G, penicillin G, reference compound]	–	–	–	–	–	–	–	–	action of the antibiotic by itself on the Staphylococcus aureus strain [1]: completely resistant; antibacterial activity of the agent by itself [2]: no activity by itself; antibacterial activity of the agent by itself ([2]; listed as penicillin G): no antibacterial activity
CC1(C)OB(c2cccc(CC(=O)O)c2)OC1(C)C [Phenylacetic acid-3-boronic acid pinacol ester]	enhanced effectiveness	enhanced effectiveness	enhanced effectiveness	enhanced effectiveness	enhanced effectiveness	–	–	–	–
O=C(O)c1cc(B(O)O)ccc1Cl [5-Borono-2-chlorobenzoic acid]	enhanced effectiveness	–	–	–	–	enhanced effectiveness	enhanced effectiveness	enhanced effectiveness	effectiveness of the combination with antibiotic (Klebsiella pneumoniae; in combination with cefepime): enhanced effectiveness
O=C(O)c1cc(B(O)O)cc([N+](=O)[O-])c1 [Benzoic acid, 3-borono-5-nitro]	enhanced effectiveness	enhanced effectiveness	enhanced effectiveness	–	–	–	–	–	–
O=C(O)c1ccc(F)c(B(O)O)c1 [5-Carboxy-2-fluorophenylboronic Acid]	enhanced effectiveness	–	–	enhanced effectiveness	proved effective	enhanced effectiveness	enhanced effectiveness	enhanced effectiveness	effectiveness of the combination with antibiotic (Klebsiella pneumoniae; in combination with cefepime): enhanced effectiveness; effectiveness of the combination with antibiotic (Klebsiella pneumoniae; [6]): enhanced effectiveness
CC(C)(O/N=C(\C(=O)N[C@@H]1C(=O)N2C(C(=O)[O-])=C(C[n+]3ccccc3)CS[C@H]12)c1csc(N)n1)C(=O)O [Ceftazidime, ceftazidime, reference compound]	–	–	–	–	–	–	–	–	antibacterial activity of the agent by itself (Klebsiella pneumoniae): very little antibacterial activity; also recorded: by itself is inactive
CC1(C)S[C@@H]2[C@H](NC(=O)[C@H](N)c3ccc(O)cc3)C(=O)N2[C@H]1C(=O)O [amoxicillin, reference compound]	–	–	–	–	–	–	–	–	action of the antibiotic by itself on the Staphylococcus aureus strain [1]: completely resistant
CO[C@@]1(NC(=O)Cc2cccs2)C(=O)N2C(C(=O)O)=C(COC(N)=O)CS[C@@H]21 [Cefoxitin, cefoxitin, reference compound]	–	–	–	–	–	–	–	–	antibacterial activity of the agent by itself [2]: active on its own
CC1(C)OB(c2ccc(C(=O)O)s2)OC1(C)C [5-Carboxythiophene-2-boronic acid pinacol ester]	enhanced effectiveness	enhanced effectiveness	partial effectiveness	–	–	enhanced effectiveness	enhanced effectiveness	enhanced effectiveness	effectiveness of the combination with antibiotic ([1]; in combination with ampicillin): enhanced effectiveness; effectiveness of the combination with antibiotic ([1]; in combination with penicillin G): enhanced effectiveness; effectiveness of the combination with antibiotic (Citrobacter freundii; [4]): enhanced effectiveness; effectiveness of the combination with antibiotic (Citrobacter freundii; [7]): enhanced effectiveness; effectiveness of the combination with antibiotic (Citrobacter freundii; in combination with meropenem): enhanced effectiveness; effectiveness of the combination with antibiotic (Pseudomonas aeruginosa; in combination with cefoperazone): enhanced effectiveness; effectiveness of the combination with antibiotic (Klebsiella pneumoniae; [7]): enhanced effectiveness; effectiveness of the combination with antibiotic (Klebsiella pneumoniae; [6]): enhanced effectiveness; effectiveness of the combination with antibiotic (Escherichia coli; in combination with amoxycillin): enhanced effectiveness; effectiveness of the combination with antibiotic (Escherichia coli; [4]): enhanced effectiveness; effectiveness of the combination with antibiotic (Escherichia coli; [7]): enhanced effectiveness; effectiveness of the combination with antibiotic (Escherichia coli; in combination with meropenem): enhanced effectiveness; effectiveness of the combination with antibiotic ([2]; in combination with ampicillin): enhanced effectiveness; effectiveness of the combination with antibiotic ([2]; in combination with penicillin G (second round)): enhanced effectiveness
OB(O)c1cc(F)cc(F)c1F [2,3,5-Trifluorophenylboronic acid]	enhanced effectiveness	enhanced effectiveness	enhanced effectiveness	enhanced effectiveness	enhanced effectiveness	enhanced effectiveness	enhanced effectiveness	–	effectiveness of the combination with antibiotic (Pseudomonas aeruginosa; [4]): enhanced effectiveness
O=C(O)c1cc(B(O)O)ccc1F [5-Borono-2-fluorobenzoic acid]	enhanced effectiveness	enhanced effectiveness	enhanced effectiveness	–	enhanced effectiveness	–	enhanced effectiveness	–	–
O=C(O)c1cccc(B(O)O)c1F [3-Carboxy-2-fluorophenylboronic acid]	enhanced effectiveness	–	partial effectiveness	partial effectiveness	partial effectiveness	enhanced effectiveness	enhanced effectiveness	enhanced effectiveness	effectiveness of the combination with antibiotic (Citrobacter freundii; in combination with meropenem): partial effectiveness; effectiveness of the combination with antibiotic (Klebsiella pneumoniae; in combination with cefepime): enhanced effectiveness; effectiveness of the combination with antibiotic (Klebsiella pneumoniae; [6]): enhanced effectiveness
O=C(O)c1ccc(Cl)c(B(O)O)c1 [5-Carboxy-2-chlorophenylboronic acid]	enhanced effectiveness	–	–	enhanced effectiveness	enhanced effectiveness	enhanced effectiveness	–	enhanced effectiveness	effectiveness of the combination with antibiotic (Citrobacter freundii; in combination with meropenem): partial enhanced effectiveness; effectiveness of the combination with antibiotic (Klebsiella pneumoniae; in combination with cefepime): enhanced effectiveness
